The numbers were not newly measured in patent publication US20040067963A1, “Methods to prevent or ameliorate trauma-related psychological disorders” (University of Florida, priority 2002, published 2004), which cites them from elsewhere.

The subject of data set [1] is patients with HRV parameters indicating autonomic dysregulation characteristic of PTSD. The conditions noted are these: 16 patients, 20-60 mg of fluoxetine, vs controls.
For data set [2], the system named is patients with combat-related PTSD. The conditions noted are these: 301 patients, by week 6 of treatment, normal to upper range of usual antidepressant doses.
In another data set the test system is PTSD in 53 civilians. The conditions noted are these: up to 60 mg/day.
Another data set relates to outpatients with PTSD. The conditions noted are these: 12 week trial, 187 outpatients with PTSD, primarily female victims of sexual assault.

With `CNCCC(Oc1ccc(C(F)(F)F)cc1)c1ccccc1` (centres unmarked) [fluoxetine], the “heart rate variability (HRV)” value in data set [1] is “significantly higher HRV than controls”. In data set [2], the “total Treatment Outcome PTSD rating scale score, change from baseline vs placebo” value is reported as “statistically significant improvement from baseline”. Also, in the data set with PTSD in 53 civilians (by week 2-4), the “effect on symptom severity vs placebo” value is listed as “significantly more effect on symptom severity than placebo”. Further, the “effectiveness on most measures, including disability improvement, vs placebo” value in the data set on PTSD in 53 civilians (by week 12) is listed as “more effective on most measures”.
In the case of `CN[C@H]1CC[C@@H](c2ccc(Cl)c(Cl)c2)c2ccccc21` [sertraline], the “efficacy compared with placebo” value in the data set on outpatients with PTSD is listed as “significant superiority”.
